Measurements from patent publication US20020076736A1, “Methods of affecting laminin 5 processing” (priority 2000, published 2002).
“Also recorded” adds a separate entry of the source.

Assays:
[1] = system: laminin 5 processing in squamous cell carcinoma cell line SCC-25; experiment: Laminin 5 processing in SCC-25 cells, western blot; assay type: cell-based, human; conditions: 1, 5, 10 μM; 48 hours
Method: (§1) This is shown by western blot analysis. […] (FIG. 13: lane 1, control; lane 2, 1 μM; lane 3, 5 μM; lane 4, 10 μM.)

SCC-25 cells = experiment: Matrigel invasion chamber, SCC-25; assay type: cell-based, human; conditions: 5 μM; 24 hours
Method: (§2) The assay is a standard in vitro measure of tumor cell invasion. Tumor cells are plated atop a layer of fabricated basement membrane and allowed to migrate over the course of 24 hours towards conditioned 3T3 medium, which contains a chemo-attractant, located in a lower chamber. […] (FIG. 25.)

SCC-15 = experiment: MTT toxicity assay, SCC-15; assay type: cell-based; conditions: 24 hour
SCC-15 cells = experiment: Matrigel invasion chamber, SCC-15; assay type: cell-based; conditions: 5 μM; 24 hours
Method: as §2

SCC-25 = experiment: MTT toxicity assay, SCC-25; assay type: cell-based, human; conditions: 24 hour
MT1-MMP = MT1-MMP (Homo sapiens, UniProt P50281); experiment: Inhibition of MT1-MMP activity; assay type: biochemical
MMP-9 = MMP-9 (Homo sapiens, UniProt P14780); experiment: Inhibition of MMP-9 activity; assay type: biochemical
MMP-9, sequence (P14780 94-707, species assumed): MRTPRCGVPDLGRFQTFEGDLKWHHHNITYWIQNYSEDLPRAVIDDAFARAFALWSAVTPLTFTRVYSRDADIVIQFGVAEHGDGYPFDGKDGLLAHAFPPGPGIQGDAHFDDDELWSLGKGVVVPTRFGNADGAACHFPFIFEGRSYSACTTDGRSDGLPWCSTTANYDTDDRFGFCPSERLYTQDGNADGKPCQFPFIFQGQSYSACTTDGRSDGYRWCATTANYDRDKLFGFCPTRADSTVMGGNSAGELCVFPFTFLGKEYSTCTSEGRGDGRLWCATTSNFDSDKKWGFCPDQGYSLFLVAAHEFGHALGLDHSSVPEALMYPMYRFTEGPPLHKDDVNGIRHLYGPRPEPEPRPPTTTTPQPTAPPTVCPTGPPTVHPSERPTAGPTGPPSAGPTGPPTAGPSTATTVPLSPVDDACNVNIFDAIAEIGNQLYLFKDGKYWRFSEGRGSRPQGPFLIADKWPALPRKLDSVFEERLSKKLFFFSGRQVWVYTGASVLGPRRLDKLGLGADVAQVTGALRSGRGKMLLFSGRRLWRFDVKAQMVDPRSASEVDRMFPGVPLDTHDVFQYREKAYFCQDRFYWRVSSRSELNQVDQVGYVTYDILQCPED

squamous carcinoma cells = experiment: Migration of squamous carcinoma cells (general statement); assay type: cell-based
cultured cells = experiment: Toxicity to cultured cells; assay type: cell-based
MMP-2 = biological target: T1, MMP-2 (Homo sapiens, UniProt P08253); experiment: Inhibition of MMP-2 activity; assay type: biochemical
T1 sequence (P08253 110-660): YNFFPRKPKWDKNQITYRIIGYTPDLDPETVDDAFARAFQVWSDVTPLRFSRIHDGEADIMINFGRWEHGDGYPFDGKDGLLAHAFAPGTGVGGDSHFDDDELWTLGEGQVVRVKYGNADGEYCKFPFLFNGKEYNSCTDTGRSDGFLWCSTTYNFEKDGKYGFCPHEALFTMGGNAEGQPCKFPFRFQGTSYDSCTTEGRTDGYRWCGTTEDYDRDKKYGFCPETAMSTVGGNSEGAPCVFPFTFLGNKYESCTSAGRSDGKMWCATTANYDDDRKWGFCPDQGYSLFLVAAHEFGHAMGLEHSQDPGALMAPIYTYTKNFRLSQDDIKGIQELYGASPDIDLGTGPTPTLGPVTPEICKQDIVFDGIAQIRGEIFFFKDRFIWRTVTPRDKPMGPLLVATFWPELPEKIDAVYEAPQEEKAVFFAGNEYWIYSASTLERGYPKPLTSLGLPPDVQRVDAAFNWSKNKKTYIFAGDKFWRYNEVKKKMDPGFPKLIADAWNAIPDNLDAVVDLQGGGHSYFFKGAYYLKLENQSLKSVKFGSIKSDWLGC

[2] = system: normal immortalized keratinocytes (NIK); experiment: Scratch assay, normal immortalized keratinocytes; assay type: cell-based
Method: (§3) A dose-dependent study of Compound 2 was performed on keratinocyte cultures. In these assays, a scratch was placed in a confluent layer of cells, and the migration of the cells into the scratched area was assessed after 48 hours. In the absence of inhibitor, normal immortalized keratinocytes (NIK) migrated into the scratch area.

[3] = system: laminin 5 processing in squamous cell carcinoma cell line SCC-15; experiment: Laminin 5 processing in SCC-15 cells, western blot; assay type: cell-based; conditions: 1, 5, 10 μM; 48 hours
Method: as §1

normal keratinocytes = experiment: Keratinocyte detachment by trypsin; assay type: cell-based; conditions: cultured 24 hours with compound; 0.05% trypsin
From the text: The mode of attachment of keratinocytes to processed and unprocessed laminin 5 was examined by two methods. […] (FIG. 20.)

keratinocytes = experiment: Keratinocyte migration, Boyden chambers; assay type: cell-based
Method: Compounds 1 and 2 were used to examine the functional effects of processing by BMP-1 related proteins on keratinocyte migration. […] Keratinocytes were analyzed for migration in Boyden chambers in the presence of increasing amounts of the inhibitors. […] (Koivunen et al. (1999) Nature Biotechnology 17:768-774.)

[4] = system: squamous cell carcinoma cell line SCC-15; experiment: Scratch assay, SCC-15; assay type: cell-based; conditions: 1, 5, 10 μM; 48 hours
MMP-1 = biological target: T2, MMP-1 (Homo sapiens, UniProt P03956); experiment: Inhibition of MMP-1 activity; assay type: biochemical
T2 sequence (P03956 100-469): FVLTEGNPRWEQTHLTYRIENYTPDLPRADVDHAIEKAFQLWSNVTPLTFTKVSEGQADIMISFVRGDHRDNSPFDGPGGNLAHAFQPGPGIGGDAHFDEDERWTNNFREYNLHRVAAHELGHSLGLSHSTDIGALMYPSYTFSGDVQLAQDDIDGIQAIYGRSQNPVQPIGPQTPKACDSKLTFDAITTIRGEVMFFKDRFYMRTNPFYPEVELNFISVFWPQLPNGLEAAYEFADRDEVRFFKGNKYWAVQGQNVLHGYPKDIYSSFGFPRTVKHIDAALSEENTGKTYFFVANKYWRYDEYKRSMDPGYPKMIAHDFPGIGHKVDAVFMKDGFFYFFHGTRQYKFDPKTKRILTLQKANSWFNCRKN

SiHa = experiment: MTT toxicity assay, SiHa; assay type: cell-based; conditions: 24 hour
[5] = system: squamous carcinoma cell line SCC-25; experiment: Scratch assay, SCC-25; assay type: cell-based, human
Method: (§4) To approximate in vivo epidermal cell migration, during which epidermal cells move as sheets, scratch assays were utilized. Normal human keratinocytes were plated to confluence in the presence of either of the inhibitors (10 μM) or DMSO, and the cells allowed to attach for 6 hours. A 2 mm scratch was produced in the culture, marked, and the migration of the cells studied for the following 24 to 48 hours. […] (FIG. 7B.) When scratched plates were subsequently washed after 24 hours of incubation with the inhibitors, and incubated for an additional 24 hours in the absence of inhibitors, normal migration equivalent to that of the control conditions was noted.
In addition, squamous carcinoma cell line SCC-25 (ATCC Number CRL-1628) was examined by the described scratch assay using the inhibitors. […] Washing out of the inhibitors for an additional 48 hour time period restored normal SCC migration.
as §3

mTll-1 = mTll-1 (Homo sapiens, UniProt O43897); experiment: Cleavage of unprocessed laminin 5 matrix by mTll-1, western blot; assay type: biochemical; conditions: 10 μM
mTll-1, sequence (O43897 148-1013): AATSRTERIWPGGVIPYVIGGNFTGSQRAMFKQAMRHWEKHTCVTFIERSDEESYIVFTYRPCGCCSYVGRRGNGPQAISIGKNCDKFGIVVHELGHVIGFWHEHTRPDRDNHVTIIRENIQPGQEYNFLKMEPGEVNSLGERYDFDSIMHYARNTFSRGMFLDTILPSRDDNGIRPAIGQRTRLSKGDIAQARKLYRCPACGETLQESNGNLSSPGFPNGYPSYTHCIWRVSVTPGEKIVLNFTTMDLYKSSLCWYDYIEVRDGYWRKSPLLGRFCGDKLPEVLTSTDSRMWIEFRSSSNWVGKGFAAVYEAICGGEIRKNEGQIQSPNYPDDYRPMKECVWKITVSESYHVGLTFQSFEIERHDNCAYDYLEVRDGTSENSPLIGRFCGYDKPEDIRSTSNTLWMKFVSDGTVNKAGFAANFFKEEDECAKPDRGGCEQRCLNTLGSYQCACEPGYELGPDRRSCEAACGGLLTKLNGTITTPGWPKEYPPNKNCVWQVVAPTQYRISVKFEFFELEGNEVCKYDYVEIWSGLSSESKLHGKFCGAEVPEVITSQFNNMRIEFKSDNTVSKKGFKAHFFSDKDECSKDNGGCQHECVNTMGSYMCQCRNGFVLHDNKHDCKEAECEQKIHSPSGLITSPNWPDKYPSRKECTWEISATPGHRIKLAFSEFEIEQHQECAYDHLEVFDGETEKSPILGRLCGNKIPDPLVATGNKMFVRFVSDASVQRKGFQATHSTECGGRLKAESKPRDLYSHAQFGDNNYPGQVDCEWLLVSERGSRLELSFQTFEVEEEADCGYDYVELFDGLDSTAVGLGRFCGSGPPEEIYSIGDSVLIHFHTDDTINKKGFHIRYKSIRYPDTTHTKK
Method: (§5) The processing of laminin 5 by various BMP-1 related proteins was examined. […] The cells were then removed from the culture dish by 20 mM ammonium sulfate, the dish was washed, and the matrix was incubated in increasing amounts of each BMP-1 related protein. After proteolytic digestion, the matrix was extracted and examined by western blot analysis. […] BMP-1 and mTLL-2 cleaved the γ2 chain of laminin 5.

[6] = system: normal human keratinocytes; experiment: Scratch assay, normal human keratinocytes; assay type: cell-based; conditions: 10 μM; 24 hours
Method: as §4

mTll-2 = mTll-2 (Homo sapiens, UniProt Q9Y6L7); experiment: Cleavage of unprocessed laminin 5 matrix by mTll-2, western blot; assay type: biochemical; conditions: 10 μM
mTll-2, sequence (Q9Y6L7 150-1015): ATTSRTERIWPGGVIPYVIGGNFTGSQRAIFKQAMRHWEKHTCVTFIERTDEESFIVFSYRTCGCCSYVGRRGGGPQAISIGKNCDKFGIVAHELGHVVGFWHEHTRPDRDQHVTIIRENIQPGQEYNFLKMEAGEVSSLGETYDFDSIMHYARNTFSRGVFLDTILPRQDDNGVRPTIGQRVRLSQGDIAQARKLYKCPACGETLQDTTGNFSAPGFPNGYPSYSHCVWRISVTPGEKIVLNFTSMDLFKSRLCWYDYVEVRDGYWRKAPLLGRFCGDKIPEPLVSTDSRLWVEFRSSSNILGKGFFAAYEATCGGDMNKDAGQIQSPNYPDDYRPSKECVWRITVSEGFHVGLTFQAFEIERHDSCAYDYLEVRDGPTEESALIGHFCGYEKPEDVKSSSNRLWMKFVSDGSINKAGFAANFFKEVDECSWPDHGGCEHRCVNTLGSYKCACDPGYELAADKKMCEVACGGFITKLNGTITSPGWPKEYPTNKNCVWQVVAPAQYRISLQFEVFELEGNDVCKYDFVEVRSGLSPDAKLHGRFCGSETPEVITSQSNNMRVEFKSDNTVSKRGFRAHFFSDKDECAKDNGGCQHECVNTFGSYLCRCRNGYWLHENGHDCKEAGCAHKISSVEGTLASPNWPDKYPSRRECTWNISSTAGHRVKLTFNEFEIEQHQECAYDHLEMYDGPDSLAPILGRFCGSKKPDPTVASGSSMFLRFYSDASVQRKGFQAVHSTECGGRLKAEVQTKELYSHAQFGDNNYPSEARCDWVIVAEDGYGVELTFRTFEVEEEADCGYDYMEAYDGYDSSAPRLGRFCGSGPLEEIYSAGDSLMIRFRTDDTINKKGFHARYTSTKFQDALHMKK
Method: as §5

SiHa cells = experiment: Matrigel invasion chamber, SiHa; assay type: cell-based; conditions: 24 hours; cell line unable to produce laminin 5
Method: as §2

[7] = system: laminin 5 processing in normal human keratinocytes; experiment: Laminin 5 processing in keratinocyte cultures, western blot; assay type: cell-based
Method: Each of the inhibitors was added to freshly plated cultures of normal human keratinocytes. After 16 hours, laminin 5 was extracted from cultures and analyzed by western blot using a polyclonal antibody to laminin 5.

[8] = system: laminin 5 processing in normal immortalized keratinocytes (NIK); experiment: Laminin 5 processing in normal immortalized keratinocytes, western blot; assay type: cell-based; conditions: 1, 5, 8 μM; 48 hours

Method for KLASV cells: To allow for attachment to the tissue culture dish, KLASV cells were plated in tissue culture wells previously coated with type I collagen.

COc1ccc(CCN(CCC(=O)NO)S(=O)(=O)c2ccc(NC(=O)NCc3ccccc3)cc2)cc1 [Compound 2]
processing of laminin 5 in SCC-25, dose dependence [1]: dose-dependent effect | invasion of SCC-25 cells (SCC-25 cells): able to inhibit the invasion | MTT toxicity, SCC-15 (SCC-15): little or no toxicity | invasion of SCC-15 cells (SCC-15 cells): able to inhibit the invasion | MTT toxicity, SCC-25 (SCC-25): little or no toxicity | inhibition of activity of MT1-MMP (MT1-MMP): no inhibition | inhibition of activity of MMP-9 (MMP-9): no inhibition | inhibition of migration of squamous carcinoma cells (squamous carcinoma cells): potently inhibit | toxicity to cultured cells at 100 times inhibitory levels (cultured cells; 100 times the concentration which inhibited BMP-1 activity): nontoxic | toxic effect on cells (cultured cells; cell culture): nontoxic; also recorded: non-toxic; also recorded: no toxic effect on cells | inhibition of activity of MMP-2 (MMP-2): no inhibition | inhibition of keratinocyte migration on type I collagen coated versus non-coated dishes ([2]; 10 μM, 48 hr): equally effective at inhibiting cell migration | migration of NIK into the scratch area, dose dependence ([2]; 1, 5, 8 μM, 48 hours): dose-dependent inhibition of migration | processing of laminin 5 in SCC-15, dose dependence [3]: dose-dependent effect | resistance of treated cells to trypsin detachment (normal keratinocytes): more resistant to trypsin treatment | inhibition of keratinocyte migration (keratinocytes): potently inhibit | keratinocyte migration in transwells or over a scratch (keratinocytes; 10 μM): almost complete lack of migration | inhibition of keratinocyte migration, dose dependence (keratinocytes; Boyden chamber and scratch assays): inhibition of KC migration in a dose-dependent manner | dose required to achieve nearly complete inhibition of migration (keratinocytes; Boyden chambers): 10 µM | migration of SCC-15 into the scratch area, dose dependence [4]: dose-dependent effect | migration of KLASV cells (KLASV cells; type I collagen coated dishes, 10 μM, 48 hr): not inhibited | migration of KLASV cells into the scratch (KLASV cells; type I collagen coated wells, 24 hours, compared to non-treated control): significant migration into the scratch | inhibition of activity of MMP-1 (MMP-1): no inhibition | MTT toxicity, SiHa (SiHa): little or no toxicity | SCC-25 migration response compared with keratinocytes ([5]; 10 μM): identical response | inhibition of SCC cell migration on type I collagen coated versus non-coated dishes ([5]; 10 μM, 48 hr): equally effective at inhibiting cell migration | SCC-25 migration into the scratch ([5]; 10 μM, up to 48 hours): effective at preventing SCC-25 migration | migration of SCC-25 into the scratch area, dose dependence ([5]; 1, 5, 10 μM, 48 hours): dose-dependent effect | cleavage of laminin 5 α3 chain by mTLL-1 (mTll-1): inhibited cleavage of laminin 5 α3 chain | migration of keratinocytes into the scratch [6]: almost a complete lack of migration | cleavage of laminin 5 α3 chain by mTLL-2 (mTll-2): inhibited cleavage of laminin 5 α3 chain | cleavage of laminin 5 γ2 chain by mTLL-2 (mTll-2): inhibited cleavage of laminin 5 γ2 chain | invasion of SiHa cells (SiHa cells): not able to inhibit the invasion | processing of laminin 5 deposited by cultured keratinocytes ([7]; 10 μM): prevented processing of laminin 5 | level of expression of laminin 5 ([7]; 16 hours, western blot): did not significantly change | processing of the α3 and γ2 chains of laminin 5 ([7]; 16 hours, western blot): completely inhibited | laminin 5 α3 chain and γ2 chain processing, dose dependence ([7]; dose-dependent manner): inhibited laminin 5 α3 chain and γ2 chain processing | processing of laminin 5 in NIK, dose dependence [8]: dose-dependent effect
